According to the kinase profiling compilation of Christmann-Franck et al. (2016):
pKd: −log10 of the molar value.

Assays:
Test in all cases: KINOMEscan competition binding
CDK11B (human) = CDK11B (human) (UniProt P21127)
[1] = tested on: PIK3CA (human), P42336 [I800L]
DYRK2 (human) = DYRK2 (human) (UniProt Q92630)
NTRK2 (human) = NTRK2 (human) (UniProt Q16620)
STK33 (human) = STK33 (human) (UniProt Q9BYT3)
FRK (human) = FRK (human) (UniProt P42685)
PIP5K1C (human) = PIP5K1C (human) (UniProt O60331)
SRC (human) = SRC (human) (UniProt P12931)
PRKAA1 (human) = PRKAA1 (human) (UniProt Q13131)
FGR (human) = FGR (human) (UniProt P09769)
PRKCI (human) = PRKCI (human) (UniProt P41743)
STK38 (human) = STK38 (human) (UniProt Q15208)
TLK1 (human) = TLK1 (human) (UniProt Q9UKI8)
TBK1 (human) = TBK1 (human) (UniProt Q9UHD2)
GSK3A (human) = GSK3A (human) (UniProt P49840)
MAP2K2 (human) = MAP2K2 (human) (UniProt P36507)
MAP3K2 (human) = MAP3K2 (human) (UniProt Q9Y2U5)
SIK1 (human) = SIK1 (human) (UniProt P57059)
PAK1 (human) = PAK1 (human) (UniProt Q13153)
ROCK2 (human) = ROCK2 (human) (UniProt O75116)
SRMS (human) = SRMS (human) (UniProt Q9H3Y6)
MAP3K12 (human) = MAP3K12 (human) (UniProt Q12852)
BRAF (human) = BRAF (human) (UniProt P15056); details: compound 1.0 µM
STK10 (human) = STK10 (human) (UniProt O94804)
MKNK1 (human) = MKNK1 (human) (UniProt Q9BUB5)
[2] = tested on: EGFR (human), P00533 [747-751 del / S ins]
STK38L (human) = STK38L (human) (UniProt Q9Y2H1)
TYRO3 (human) = TYRO3 (human) (UniProt Q06418)
STK39 (human) = STK39 (human) (UniProt Q9UEW8)
MARK1 (human) = MARK1 (human) (UniProt Q9P0L2)
RPS6KA6 KD2 (human) = RPS6KA6 KD2 (human) (UniProt Q9UK32)
PLK4 (human) = PLK4 (human) (UniProt O00444)
RIPK4 (human) = RIPK4 (human) (UniProt P57078)
PIM1 (human) = PIM1 (human) (UniProt P11309)
CDK17 (human) = CDK17 (human) (UniProt Q00537)
CDC2L2 (human) = CDC2L2 (human) (UniProt Q9UQ88)
SLK (human) = SLK (human) (UniProt Q9H2G2)
HIPK2 (human) = HIPK2 (human) (UniProt Q9H2X6)
CAMK2G (human) = CAMK2G (human) (UniProt Q13555)
RPS6KA1 KD1 (human) = RPS6KA1 KD1 (human) (UniProt Q15418)
PRKACA (human) = PRKACA (human) (UniProt P17612)
PRPF4B (human) = PRPF4B (human) (UniProt Q13523)
STK32C (human) = STK32C (human) (UniProt Q86UX6)

Chain of DYRK2 (human) (Q92630 whole entry, looked up): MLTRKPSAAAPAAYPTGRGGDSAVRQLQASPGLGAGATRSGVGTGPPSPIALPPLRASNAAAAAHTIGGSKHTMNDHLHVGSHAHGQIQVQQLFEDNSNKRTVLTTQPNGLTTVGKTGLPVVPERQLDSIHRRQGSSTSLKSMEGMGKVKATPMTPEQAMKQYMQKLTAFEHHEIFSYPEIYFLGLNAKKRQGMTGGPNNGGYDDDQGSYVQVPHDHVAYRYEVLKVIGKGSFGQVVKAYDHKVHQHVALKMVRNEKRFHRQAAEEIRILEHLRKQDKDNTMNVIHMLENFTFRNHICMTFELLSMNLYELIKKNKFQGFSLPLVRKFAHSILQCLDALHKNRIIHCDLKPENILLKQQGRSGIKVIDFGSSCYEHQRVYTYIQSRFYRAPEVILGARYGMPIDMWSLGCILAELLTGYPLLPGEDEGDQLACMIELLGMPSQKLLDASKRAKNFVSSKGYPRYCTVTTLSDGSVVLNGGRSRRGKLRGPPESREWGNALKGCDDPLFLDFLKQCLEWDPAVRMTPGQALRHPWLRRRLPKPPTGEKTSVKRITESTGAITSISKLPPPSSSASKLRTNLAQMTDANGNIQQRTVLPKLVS
Chain of FRK (human) (P42685 whole entry, looked up): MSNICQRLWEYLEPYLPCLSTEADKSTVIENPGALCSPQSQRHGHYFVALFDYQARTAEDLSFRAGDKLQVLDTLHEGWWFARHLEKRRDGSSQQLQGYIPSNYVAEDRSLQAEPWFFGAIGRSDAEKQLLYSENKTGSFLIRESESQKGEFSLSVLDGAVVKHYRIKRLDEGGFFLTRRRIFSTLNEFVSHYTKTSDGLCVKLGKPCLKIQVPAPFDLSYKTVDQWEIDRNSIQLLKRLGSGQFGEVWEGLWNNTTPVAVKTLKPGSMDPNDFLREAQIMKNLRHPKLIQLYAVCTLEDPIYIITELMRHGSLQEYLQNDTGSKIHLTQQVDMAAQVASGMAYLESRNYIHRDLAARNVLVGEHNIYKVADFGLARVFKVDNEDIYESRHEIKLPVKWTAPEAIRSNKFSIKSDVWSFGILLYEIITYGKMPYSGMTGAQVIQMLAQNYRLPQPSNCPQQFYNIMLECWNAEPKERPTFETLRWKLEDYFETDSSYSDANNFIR
Chain of GSK3A (human) (P49840 whole entry, looked up): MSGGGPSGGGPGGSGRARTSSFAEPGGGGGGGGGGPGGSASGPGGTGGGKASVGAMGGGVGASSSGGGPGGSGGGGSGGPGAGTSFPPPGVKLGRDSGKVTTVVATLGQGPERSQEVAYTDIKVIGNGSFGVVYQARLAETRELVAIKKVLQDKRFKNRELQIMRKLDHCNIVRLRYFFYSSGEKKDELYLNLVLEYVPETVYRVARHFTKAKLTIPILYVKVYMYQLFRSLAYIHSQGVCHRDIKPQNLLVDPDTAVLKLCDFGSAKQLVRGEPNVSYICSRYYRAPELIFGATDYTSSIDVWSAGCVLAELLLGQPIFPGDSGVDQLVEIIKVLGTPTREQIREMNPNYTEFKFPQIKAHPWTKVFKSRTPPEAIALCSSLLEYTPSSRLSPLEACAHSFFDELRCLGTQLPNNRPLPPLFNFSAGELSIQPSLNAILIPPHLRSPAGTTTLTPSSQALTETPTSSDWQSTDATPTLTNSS
Chain of STK33 (human) (Q9BYT3 whole entry, looked up): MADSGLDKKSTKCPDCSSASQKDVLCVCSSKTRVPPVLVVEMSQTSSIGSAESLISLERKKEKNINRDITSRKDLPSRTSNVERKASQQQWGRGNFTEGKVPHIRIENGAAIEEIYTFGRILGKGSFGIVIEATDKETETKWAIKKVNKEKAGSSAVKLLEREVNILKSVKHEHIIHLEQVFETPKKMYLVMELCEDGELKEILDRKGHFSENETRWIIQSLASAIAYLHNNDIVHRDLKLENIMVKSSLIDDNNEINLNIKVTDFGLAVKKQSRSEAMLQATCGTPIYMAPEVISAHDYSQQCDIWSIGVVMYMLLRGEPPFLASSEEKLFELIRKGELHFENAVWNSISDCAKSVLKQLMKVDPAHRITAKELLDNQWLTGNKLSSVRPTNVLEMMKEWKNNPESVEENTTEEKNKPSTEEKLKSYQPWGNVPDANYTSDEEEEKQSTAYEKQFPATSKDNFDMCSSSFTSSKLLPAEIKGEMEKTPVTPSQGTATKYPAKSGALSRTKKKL
Chain of TYRO3 (human) (Q06418 whole entry, looked up): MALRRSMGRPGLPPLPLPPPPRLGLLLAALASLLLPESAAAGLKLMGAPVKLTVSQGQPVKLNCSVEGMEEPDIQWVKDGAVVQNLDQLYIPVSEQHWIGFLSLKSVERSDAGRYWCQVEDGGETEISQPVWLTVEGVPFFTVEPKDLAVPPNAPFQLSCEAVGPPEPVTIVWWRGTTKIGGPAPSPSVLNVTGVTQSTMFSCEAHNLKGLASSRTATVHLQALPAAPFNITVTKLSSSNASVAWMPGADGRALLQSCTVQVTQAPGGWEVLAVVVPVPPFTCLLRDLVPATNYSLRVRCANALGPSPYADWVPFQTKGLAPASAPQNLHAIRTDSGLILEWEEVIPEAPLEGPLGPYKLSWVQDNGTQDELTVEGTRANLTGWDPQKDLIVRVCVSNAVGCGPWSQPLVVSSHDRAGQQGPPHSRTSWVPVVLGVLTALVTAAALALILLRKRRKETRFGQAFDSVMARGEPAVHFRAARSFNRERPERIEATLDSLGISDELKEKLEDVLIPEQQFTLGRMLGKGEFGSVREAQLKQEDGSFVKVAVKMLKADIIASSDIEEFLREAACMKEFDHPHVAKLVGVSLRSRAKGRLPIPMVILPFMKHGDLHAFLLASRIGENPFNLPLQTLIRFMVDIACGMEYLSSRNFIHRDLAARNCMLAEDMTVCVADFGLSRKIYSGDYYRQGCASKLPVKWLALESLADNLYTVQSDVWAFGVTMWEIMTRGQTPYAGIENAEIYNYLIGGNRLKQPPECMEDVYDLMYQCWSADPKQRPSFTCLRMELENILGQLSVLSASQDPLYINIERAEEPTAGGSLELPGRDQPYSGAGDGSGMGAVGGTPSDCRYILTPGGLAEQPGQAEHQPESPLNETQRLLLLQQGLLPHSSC
Chain of CDK17 (human) (Q00537 whole entry, looked up): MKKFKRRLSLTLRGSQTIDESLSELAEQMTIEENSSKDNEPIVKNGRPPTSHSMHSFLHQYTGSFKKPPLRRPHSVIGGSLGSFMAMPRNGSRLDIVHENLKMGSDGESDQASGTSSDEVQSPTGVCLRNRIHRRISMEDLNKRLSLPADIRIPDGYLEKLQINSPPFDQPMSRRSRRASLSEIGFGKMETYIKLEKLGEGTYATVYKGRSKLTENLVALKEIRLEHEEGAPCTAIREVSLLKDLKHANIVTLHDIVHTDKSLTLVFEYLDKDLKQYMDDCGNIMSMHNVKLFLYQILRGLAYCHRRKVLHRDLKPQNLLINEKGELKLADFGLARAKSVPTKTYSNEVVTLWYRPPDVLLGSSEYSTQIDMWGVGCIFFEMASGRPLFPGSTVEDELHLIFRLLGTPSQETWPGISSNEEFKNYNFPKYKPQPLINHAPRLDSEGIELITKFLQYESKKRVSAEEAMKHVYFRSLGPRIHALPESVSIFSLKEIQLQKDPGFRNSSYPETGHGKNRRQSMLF
Chain of SRMS (human) (Q9H3Y6 whole entry, looked up): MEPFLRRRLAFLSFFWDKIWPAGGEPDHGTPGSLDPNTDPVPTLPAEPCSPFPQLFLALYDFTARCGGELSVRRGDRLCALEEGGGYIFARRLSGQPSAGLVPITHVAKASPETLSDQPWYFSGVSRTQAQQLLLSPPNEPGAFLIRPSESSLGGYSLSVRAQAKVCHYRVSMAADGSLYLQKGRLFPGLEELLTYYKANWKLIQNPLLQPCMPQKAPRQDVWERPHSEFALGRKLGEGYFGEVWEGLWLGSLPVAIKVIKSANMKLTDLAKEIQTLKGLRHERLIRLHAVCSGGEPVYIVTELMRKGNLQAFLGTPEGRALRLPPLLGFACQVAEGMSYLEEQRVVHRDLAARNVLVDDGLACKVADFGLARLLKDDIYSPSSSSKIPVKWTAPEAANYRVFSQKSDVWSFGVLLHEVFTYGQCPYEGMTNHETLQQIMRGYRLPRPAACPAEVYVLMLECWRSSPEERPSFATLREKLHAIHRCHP
Chain of STK10 (human) (O94804 whole entry, looked up): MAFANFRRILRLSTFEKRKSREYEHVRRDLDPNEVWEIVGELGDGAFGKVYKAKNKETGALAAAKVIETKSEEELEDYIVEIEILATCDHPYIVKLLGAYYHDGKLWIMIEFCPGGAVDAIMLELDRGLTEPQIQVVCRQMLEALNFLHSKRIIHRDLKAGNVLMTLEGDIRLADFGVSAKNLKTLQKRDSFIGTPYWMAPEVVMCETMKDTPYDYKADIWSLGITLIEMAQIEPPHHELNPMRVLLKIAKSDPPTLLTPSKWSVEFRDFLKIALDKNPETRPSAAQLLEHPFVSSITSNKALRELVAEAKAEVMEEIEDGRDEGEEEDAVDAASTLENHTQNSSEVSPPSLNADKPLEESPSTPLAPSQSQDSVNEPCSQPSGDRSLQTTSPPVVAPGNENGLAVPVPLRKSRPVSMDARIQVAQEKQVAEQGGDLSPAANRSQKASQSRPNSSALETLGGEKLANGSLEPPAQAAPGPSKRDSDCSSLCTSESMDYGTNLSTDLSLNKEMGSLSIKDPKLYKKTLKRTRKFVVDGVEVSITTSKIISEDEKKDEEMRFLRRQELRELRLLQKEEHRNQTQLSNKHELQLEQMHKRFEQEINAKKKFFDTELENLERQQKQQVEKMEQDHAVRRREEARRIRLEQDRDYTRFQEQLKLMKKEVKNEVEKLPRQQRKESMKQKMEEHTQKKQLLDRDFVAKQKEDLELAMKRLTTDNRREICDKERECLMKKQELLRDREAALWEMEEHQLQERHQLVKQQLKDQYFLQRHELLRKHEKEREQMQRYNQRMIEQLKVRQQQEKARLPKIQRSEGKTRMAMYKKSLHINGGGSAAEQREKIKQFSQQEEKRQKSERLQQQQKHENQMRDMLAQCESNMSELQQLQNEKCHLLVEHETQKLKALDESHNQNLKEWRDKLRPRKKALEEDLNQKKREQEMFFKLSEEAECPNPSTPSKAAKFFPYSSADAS

CN(C)C/C=C/C(=O)Nc1cccc(C(=O)Nc2ccc(Nc3nccc(-c4cccnc4)n3)cc2)c1
kinase still bound, per cent of control (CDK11B (human); compound 1.0 µM): 71% | kinase still bound, per cent of control ([1]; compound 1.0 µM): 98% | pKd (DYRK2 (human)): 6.92 | kinase still bound, per cent of control (DYRK2 (human); compound 1.0 µM): 3.2% | kinase still bound, per cent of control (NTRK2 (human); compound 1.0 µM): 94% | kinase still bound, per cent of control (STK33 (human); compound 1.0 µM): 93% | kinase still bound, per cent of control (FRK (human); compound 1.0 µM): 90% | kinase still bound, per cent of control (PIP5K1C (human); compound 1.0 µM): 22% | kinase still bound, per cent of control (SRC (human); compound 1.0 µM): 88% | kinase still bound, per cent of control (PRKAA1 (human); compound 1.0 µM): 92% | kinase still bound, per cent of control (FGR (human); compound 1.0 µM): 69% | kinase still bound, per cent of control (PRKCI (human); compound 1.0 µM): 100% | kinase still bound, per cent of control (STK38 (human); compound 1.0 µM): 100% | kinase still bound, per cent of control (TLK1 (human); compound 1.0 µM): 92% | kinase still bound, per cent of control (TBK1 (human); compound 1.0 µM): 61% | kinase still bound, per cent of control (GSK3A (human); compound 1.0 µM): 65% | kinase still bound, per cent of control (MAP2K2 (human); compound 1.0 µM): 58% | kinase still bound, per cent of control (MAP3K2 (human); compound 1.0 µM): 100% | kinase still bound, per cent of control (SIK1 (human); compound 1.0 µM): 87% | kinase still bound, per cent of control (PAK1 (human); compound 1.0 µM): 69% | kinase still bound, per cent of control (ROCK2 (human); compound 1.0 µM): 16% | kinase still bound, per cent of control (SRMS (human); compound 1.0 µM): 100% | kinase still bound, per cent of control (MAP3K12 (human); compound 1.0 µM): 72% | kinase still bound, per cent of control (BRAF (human)): 95% | kinase still bound, per cent of control (STK10 (human); compound 1.0 µM): 100% | kinase still bound, per cent of control (MKNK1 (human); compound 1.0 µM): 100% | kinase still bound, per cent of control ([2]; compound 1.0 µM): 74% | kinase still bound, per cent of control (STK38L (human); compound 1.0 µM): 99% | kinase still bound, per cent of control (TYRO3 (human); compound 1.0 µM): 87% | kinase still bound, per cent of control (STK39 (human); compound 1.0 µM): 95% | kinase still bound, per cent of control (MARK1 (human); compound 1.0 µM): 68% | kinase still bound, per cent of control (RPS6KA6 KD2 (human); compound 1.0 µM): 100% | kinase still bound, per cent of control (PLK4 (human); compound 1.0 µM): 52% | kinase still bound, per cent of control (RIPK4 (human); compound 1.0 µM): 31% | kinase still bound, per cent of control (PIM1 (human); compound 1.0 µM): 94% | kinase still bound, per cent of control (CDK17 (human); compound 1.0 µM): 84% | kinase still bound, per cent of control (CDC2L2 (human); compound 1.0 µM): 74% | kinase still bound, per cent of control (SLK (human); compound 1.0 µM): 100% | kinase still bound, per cent of control (HIPK2 (human); compound 1.0 µM): 9.2% | kinase still bound, per cent of control (CAMK2G (human); compound 1.0 µM): 99% | kinase still bound, per cent of control (RPS6KA1 KD1 (human); compound 1.0 µM): 100% | kinase still bound, per cent of control (PRKACA (human); compound 1.0 µM): 83% | kinase still bound, per cent of control (PRPF4B (human); compound 1.0 µM): 93% | kinase still bound, per cent of control (STK32C (human); compound 1.0 µM): 98%

Cc1ccc(NC(=O)c2ccc(NC(=O)/C=C/CN(C)C)cc2)cc1Nc1nccc(-c2cccnc2)n1
kinase still bound, per cent of control (CDK11B (human); compound 10.0 µM): 100% | kinase still bound, per cent of control ([1]; compound 10.0 µM): 88% | kinase still bound, per cent of control (DYRK2 (human); compound 10.0 µM): 36% | kinase still bound, per cent of control (NTRK2 (human); compound 10.0 µM): 67% | kinase still bound, per cent of control (STK33 (human); compound 10.0 µM): 97% | kinase still bound, per cent of control (FRK (human); compound 10.0 µM): 86% | kinase still bound, per cent of control (PIP5K1C (human); compound 10.0 µM): 90% | kinase still bound, per cent of control (SRC (human); compound 10.0 µM): 78% | kinase still bound, per cent of control (PRKAA1 (human); compound 10.0 µM): 73% | kinase still bound, per cent of control (FGR (human); compound 10.0 µM): 80% | kinase still bound, per cent of control (PRKCI (human); compound 10.0 µM): 97% | kinase still bound, per cent of control (STK38 (human); compound 10.0 µM): 80% | kinase still bound, per cent of control (TLK1 (human); compound 10.0 µM): 74% | kinase still bound, per cent of control (TBK1 (human); compound 10.0 µM): 64% | kinase still bound, per cent of control (GSK3A (human); compound 10.0 µM): 100% | kinase still bound, per cent of control (MAP2K2 (human); compound 10.0 µM): 74% | kinase still bound, per cent of control (MAP3K2 (human); compound 10.0 µM): 84% | kinase still bound, per cent of control (SIK1 (human); compound 10.0 µM): 100% | kinase still bound, per cent of control (PAK1 (human); compound 10.0 µM): 89% | kinase still bound, per cent of control (ROCK2 (human); compound 10.0 µM): 61% | kinase still bound, per cent of control (SRMS (human); compound 10.0 µM): 71% | kinase still bound, per cent of control (MAP3K12 (human); compound 10.0 µM): 94% | kinase still bound, per cent of control (STK10 (human); compound 10.0 µM): 89% | kinase still bound, per cent of control (MKNK1 (human); compound 10.0 µM): 88% | kinase still bound, per cent of control ([2]; compound 10.0 µM): 50% | kinase still bound, per cent of control (STK38L (human); compound 10.0 µM): 100% | kinase still bound, per cent of control (TYRO3 (human); compound 10.0 µM): 100% | kinase still bound, per cent of control (STK39 (human); compound 10.0 µM): 82% | kinase still bound, per cent of control (MARK1 (human); compound 10.0 µM): 93% | kinase still bound, per cent of control (RPS6KA6 KD2 (human); compound 10.0 µM): 67% | kinase still bound, per cent of control (PLK4 (human); compound 10.0 µM): 41% | kinase still bound, per cent of control (RIPK4 (human); compound 10.0 µM): 97% | kinase still bound, per cent of control (PIM1 (human); compound 10.0 µM): 69% | kinase still bound, per cent of control (CDK17 (human); compound 10.0 µM): 100% | kinase still bound, per cent of control (CDC2L2 (human); compound 10.0 µM): 100% | kinase still bound, per cent of control (SLK (human); compound 10.0 µM): 100% | kinase still bound, per cent of control (HIPK2 (human); compound 10.0 µM): 54% | kinase still bound, per cent of control (CAMK2G (human); compound 10.0 µM): 95% | kinase still bound, per cent of control (RPS6KA1 KD1 (human); compound 10.0 µM): 63% | kinase still bound, per cent of control (PRKACA (human); compound 10.0 µM): 100% | kinase still bound, per cent of control (PRPF4B (human); compound 10.0 µM): 100% | kinase still bound, per cent of control (STK32C (human); compound 10.0 µM): 80%
